Measurements from patent US20230158025A1 (UNIVERSITY OF UTAH RESEARCH FOUNDATION, priority 2020, published 2023).
pIC50: −log10 of the molar value. Like-named read-outs stand apart in the source and are kept apart here.

Key:
recombinant human GALK1 = recombinant human GALK1 (Homo sapiens, UniProt P51570); experiment: hGALK1 biochemical activity assay (Kinase-Glo Plus, ATP depletion)
Outline: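 Recombinant human or mouse GALK1 (5 nM, with 100 μM galactose, in the added enzyme solution) was run with ATP (35 μM in the substrate solution) in HEPES pH 8.0 buffer. Compounds were tested at 11 1/3-step concentrations from 57.4 μM to 0.97 nM. After 1 h at room temperature, remaining ATP was read by Kinase-Glo Plus luminescence.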

recombinant mouse GALK1 = recombinant mouse GALK1 (Mus musculus, UniProt Q9R0N0); experiment: mGALK1 biochemical activity assay (Kinase-Glo Plus, ATP depletion)
Outline: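 Recombinant GALK1 (5 nM) with 100 μM galactose; GALK1 turnover read as ATP depletion by Kinase-Glo Plus luminescence. Reaction ran 1 h at room temperature before detection reagent was added.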

[1] = aqueous kinetic solubility
[2] = rat microsomal stability (RLM)
[3] = Tables 2-15, 35 μM ATP, 100 μM galactose, 1 h, bracketed figure after some values (e.g. −1.2) is undefined and not reported, read-out: hGALK IC50
[4] = recombinant human GALK1, Kinase-Glo Plus ATP depletion, read-out: hGALK
[5] = Tables 2-15, 35 μM ATP, 100 μM galactose, 1 h, bracketed figure after some values is undefined and not reported, read-out: mGALK IC50
[6] = recombinant mouse GALK1, Kinase-Glo Plus ATP depletion, read-out: mGALK
[7] = recombinant mouse GALK1, Kinase-Glo Plus ATP depletion

recombinant human GALK1, sequence (P51570 whole entry): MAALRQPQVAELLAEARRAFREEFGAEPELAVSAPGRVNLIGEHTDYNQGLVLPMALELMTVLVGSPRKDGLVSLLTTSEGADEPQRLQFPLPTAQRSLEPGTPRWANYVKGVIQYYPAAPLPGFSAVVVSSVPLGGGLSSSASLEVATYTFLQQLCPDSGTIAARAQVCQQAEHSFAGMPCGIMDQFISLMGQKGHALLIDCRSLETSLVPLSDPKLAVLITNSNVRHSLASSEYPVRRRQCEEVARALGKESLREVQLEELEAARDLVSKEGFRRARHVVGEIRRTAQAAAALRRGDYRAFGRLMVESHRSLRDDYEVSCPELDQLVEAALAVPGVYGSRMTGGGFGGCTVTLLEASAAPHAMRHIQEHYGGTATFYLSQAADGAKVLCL
recombinant mouse GALK1, sequence (Q9R0N0 whole entry): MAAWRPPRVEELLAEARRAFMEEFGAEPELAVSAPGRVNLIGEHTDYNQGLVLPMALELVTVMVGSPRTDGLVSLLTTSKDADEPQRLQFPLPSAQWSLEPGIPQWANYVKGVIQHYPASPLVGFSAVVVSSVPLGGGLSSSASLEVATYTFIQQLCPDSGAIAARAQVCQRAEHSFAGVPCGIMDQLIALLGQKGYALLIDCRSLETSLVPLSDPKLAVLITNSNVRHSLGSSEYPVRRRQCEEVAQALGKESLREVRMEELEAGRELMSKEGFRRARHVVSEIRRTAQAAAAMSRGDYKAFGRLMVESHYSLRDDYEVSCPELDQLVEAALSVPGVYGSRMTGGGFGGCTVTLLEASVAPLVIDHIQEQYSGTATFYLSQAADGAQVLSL

| pIC50 (recombinant human GALK1; [3]) | pIC50 (recombinant human GALK1; [4]) | pIC50 (recombinant mouse GALK1; [5]) | pIC50 (recombinant mouse GALK1; [6]) | Perm. (1 × 10^−6 cm/sec) (PAMPA permeability) | Sol. [1] [µg/mL] | Metab. Stabil. (m) ([2]; microsomal half-life) | mGALK IC50 (recombinant mouse GALK1; Tables 2-15, 35 μM ATP, 100 μM galactose, 1 h, bracketed figure after some values is undefined and not reported) | mGALK (μM) (recombinant mouse GALK1; [7]) | Perm. (1 × 10^−6 cm/sec) (PAMPA permeability; PAMPA) | Sol. ([1]; aqueous kinetic solubility) [µg/mL] | Metab. Stabil. (m) ([2]; microsomal stability half-life) | hGALK (μM) (recombinant human GALK1; recombinant human GALK1, Kinase-Glo Plus ATP depletion) | SMILES |
| --- | --- | --- | --- | --- | --- | --- | --- | --- | --- | --- | --- | --- | --- |
| 5.36 | 5.36 | 5.16 | 5.16 | 264.3 1 × 10^−6 cm/sec | 6.2 | 17.58 |  |  |  |  |  |  | CC1=C(C(=O)Nc2cc(N(C)C)ccn2)C(c2ccc(C)cc2Cl)N=C(Nc2nc3ccc(F)cc3o2)N1 (stereo not shown) [Compound 90, 4-(2-chloro-4-methylphenyl)-N-(4-(dimethylamino)pyridin-2-yl)-2-((6-fluorobenzo[d]oxazol-2-yl)amino)-6-methyl-1,4-dihydropyrimidine-5-carboxamide] |
| 4.91 | 4.91 |  |  | <1 1 × 10^−6 cm/sec | >51 | >30 | inactive | in- active |  |  |  |  | CC1=C(C(=O)Nc2cc(C(=O)O)ccn2)C(c2ccc(C)cc2Cl)N=C(Nc2nc3cccnc3o2)N1 (stereo not shown) [Compound 108, 2-(4-(2-chloro-4-methylphenyl)-6-methyl-2-(oxazolo[5,4-b]pyridin-2-ylamino)-1,4-dihydropyrimidine-5-carboxamido)isonicotinic acid] |
| 5.36 | 5.36 | 5.06 | 5.06 |  |  |  |  |  | 543.4 1 × 10^−6 cm/sec | <1 | 8.495 |  | COC(=O)c1ccc(CNC(=O)C2=C(C)NC(Nc3nc4ccccc4o3)=NC2c2ccccc2Cl)cc1 (stereo not shown) [Compound 223, methyl 4-((2-(benzo[d]oxazol-2-ylamino)-4-(2-chlorophenyl)-6-methyl-1,4-dihydropyrimidine-5-carboxamido)methyl)benzoate] |
| 5.91 | 5.91 | 5.16 | 5.16 | <21.9 1 × 10^−6 cm/sec | <1 | 9.22 |  |  |  |  |  |  | CCn1cc(CNC(=O)C2=C(C)NC(Nc3nc4ccc(F)cc4o3)=NC2c2ccc(C)cc2Cl)cn1 (stereo not shown) [Compound 112, 4-(2-chloro-4-methylphenyl)-N-((1-ethyl-1H-pyrazol-4-yl)methyl)-2-((6-fluorobenzo[d]oxazol-2-yl)amino)-6-methyl-1,4-dihydropyrimidine-5-carboxamide] |
| 5.21 | 5.21 | 4.46 | 4.46 | <1.3 1 × 10^−6 cm/sec | >76 | >30 |  |  |  |  |  |  | CC1=C(C(=O)Nc2cc(C(=O)O)ccn2)[C@@H](c2ccccc2Cl)N=C(Nc2nc3cccc(N)c3o2)N1 [Compound 25, (S)-2-(2-((7-aminobenzo[d]oxazol-2-yl)amino)-4-(2-chlorophenyl)-6-methyl-1,4-dihydropyrimidine-5-carboxamido)isonicotinic acid] |
|  | 5.31 | 4.91 | 4.91 |  |  |  |  |  | 868.8 1 × 10^−6 cm/sec | <1 | 6.574 |  | CC1=C(C(=O)NCc2cccc(CO)c2)C(c2ccccc2Cl)N=C(Nc2nc3ccccc3o2)N1 (stereo not shown) [Compound 227, 2-(benzo[d]oxazol-2-ylamino)-4-(2-chlorophenyl)-N-(3-(hydroxymethyl)benzyl)-6-methyl-1,4-dihydropyrimidine-5-carboxamide] |
|  | 6.17 |  | 5.16 |  |  |  |  |  | 17.14 1 × 10^−6 cm/sec | 49.6 | 29.59 |  | CC1=C(C(=O)NCc2cnn(C)c2)C(c2ccc(F)cc2Cl)N=C(Nc2nc3cccc(N)c3o2)N1 (stereo not shown) [Compound 119, 2-((7-aminobenzo[d]oxazol-2-yl)amino)-4-(2-chloro-4-fluorophenyl)-N-((1-methyl-1H-pyrazol-4-yl)methyl)-6-methyl-1,4-dihydropyrimidine-5-carboxamide] |
|  | 6.89 |  | 5.80 | 416.8 1 × 10^−6 cm/sec | 17.14 | 18.91 |  |  |  |  |  |  | CC1=C(C(=O)NCc2cnn(C)c2)[C@H](c2ccc(C)cc2Cl)N=C(Nc2nc3cccc(N)c3o2)N1 [Compound 115, (R)-2-((7-aminobenzo[d]oxazol-2-yl)amino)-4-(2-chloro-4-methylphenyl)-6-methyl-N-((1-methyl-1H-pyrazol-4-yl)methyl)-1,4-dihydropyrimidine-5-carboxamide] |
| 6.82 | 6.82 | 5.61 | 5.61 | <1 1 × 10^−6 cm/sec | >81 | >30 |  |  |  |  |  |  | COc1ccc([C@@H]2N=C(Nc3nc4cccc(N)c4o3)NC(C)=C2C(=O)Nc2cc(C(=O)O)ccn2)c(Cl)c1 [Compound 87, (R)-2-(2-((7-aminobenzo[d]oxazol-2-yl)amino)-4-(2-chloro-4-methoxyphenyl)-6-methyl-1,4-dihydropyrimidine-5-carboxamido)isonicotinic acid] |
| 5.31 | 5.31 | 4.96 |  |  |  |  |  |  | <2.7 1 × 10^−6 cm/sec | <1 | 3.158 |  | CCOC(=O)c1nnc(NC(=O)C2=C(C)NC(Nc3nc4ccccc4o3)=NC2c2ccccc2Cl)s1 (stereo not shown) [Compound 168, ethyl 5-(2-(benzo[d]oxazol-2-ylamino)-4-(2-chlorophenyl)-6-methyl-1,4-dihydropyrimidine-5-carboxamido)-1,3,4-thiadiazole-2-carboxylate] |

Second part, the compound before the results:

| SMILES | pIC50 (recombinant human GALK1; [3]) | pIC50 (recombinant human GALK1; [4]) | pIC50 (recombinant mouse GALK1; [5]) | pIC50 (recombinant mouse GALK1; [6]) | Perm. (1 × 10^−6 cm/sec) (PAMPA permeability) | Sol. [1] [µg/mL] | Metab. Stabil. (m) ([2]; microsomal half-life) | mGALK IC50 (recombinant mouse GALK1; Tables 2-15, 35 μM ATP, 100 μM galactose, 1 h, bracketed figure after some values is undefined and not reported) | mGALK (μM) (recombinant mouse GALK1; [7]) | Perm. (1 × 10^−6 cm/sec) (PAMPA permeability; PAMPA) | Sol. ([1]; aqueous kinetic solubility) [µg/mL] | Metab. Stabil. (m) ([2]; microsomal stability half-life) | hGALK (μM) (recombinant human GALK1; recombinant human GALK1, Kinase-Glo Plus ATP depletion) |
| --- | --- | --- | --- | --- | --- | --- | --- | --- | --- | --- | --- | --- | --- |
| CC1=C(C(=O)Nc2cc(C(=O)O)ccn2)C(c2ccc(Br)cc2Cl)N=C(Nc2nc3ccc(F)cc3o2)N1 (stereo not shown) [Compound 62, 2-(4-(4-bromo-2-chlorophenyl)-2-((6-fluorobenzo[d]oxazol-2-yl)amino)-6-methyl-1,4-dihydropyrimidine-5-carboxamido)isonicotinic acid] | 5.96 | 5.96 | 5.41 | 5.41 | <1.7 1 × 10^−6 cm/sec | 2.4 | >30 |  |  |  |  |  |  |
| CC1=C(C(=O)Nc2ccc(C#N)cn2)C(c2ccccc2Cl)N=C(Nc2nc3ccc(F)cc3o2)N1 (stereo not shown) [Compound 40, 4-(2-chlorophenyl)-N-(5-cyanopyridin-2-yl)-2-((6-fluorobenzo[d]oxazol-2-yl)amino)-6-methyl-1,4-dihydropyrimidine-5-carboxamide] |  | 4.86 |  | 4.86 | <7.8 1 × 10^−6 cm/sec | <1 | >30 |  |  |  |  |  |  |
| COC(=O)c1ccnc(NC(=O)C2=C(C)NC(Nc3nc4ccccc4o3)=N[C@@H]2c2ccccc2Cl)c1 [Compound 207, (S)-methyl 2-(2-(benzo[d]oxazol-2-ylamino)-4-(2-chlorophenyl)-6-methyl-1,4-dihydropyrimidine-5-carboxamido)isonicotinate] |  |  |  |  |  |  |  |  | in- active | 250.4 1 × 10^−6 cm/sec | <1 | 25.55 | in- active |
| CC1=C(C(=O)Nc2cccc(-c3nnn[nH]3)c2)C(c2ccccc2Cl)N=C(Nc2nc3ccccc3o2)N1 (stereo not shown) [Compound 175, N-(3-(1H-tetrahydro-5-yl)phenyl)-2-(benzo[d]oxazol-2-ylamino)-4-(2-chlorophenyl)-6-methyl-1,4-dihydropyrimidine-5-carboxamide] | 4.71 | 4.71 | 4.46 | 4.46 |  |  |  |  |  | 5.0 1 × 10^−6 cm/sec | 47.5 | >30 |  |
| CC1=C(C(=O)Nc2cc(C(=O)O)ccn2)C(c2ccc(-c3ccc(C(F)(F)F)cc3)cc2Cl)N=C(Nc2nc3ccc(F)cc3o2)N1 (stereo not shown) [Compound 68, 2-(4-(3-chloro-4′-(trifluoromethyl)-[1,1′-biphenyl]-4-yl)-2-((6-fluorobenzo[d]oxazol-2-yl)amino)-6-methyl-1,4-dihydropyrimidine-5-carboxamido)isonicotinic acid] | 5.11 | 5.11 | 4.66 | 4.66 | 6.6 1 × 10^−6 cm/sec | 8.1 | >30 |  |  |  |  |  |  |
| CC1=C(C(=O)Nc2nnc(C(F)(F)F)s2)C(c2ccccc2Cl)N=C(Nc2nc3ccccc3o2)N1 (stereo not shown) [Compound 167, 2-(benzo[d]oxazol-2-ylamino)-4-(2-chlorophenyl)-6-methyl-N-(5-(trifluoromethyl)-1,3,4-thiadiazol-2-yl)-1,4-dihydropyrimidine-5-carboxamide] | 4.91 | 4.91 | 4.66 | 4.66 |  |  |  |  |  | 12.6 1 × 10^−6 cm/sec | <1 | >30 |  |
| COC(=O)c1ccnc(NC(=O)C2=C(C)NC(Nc3nc4ccccc4o3)=NC2c2ccccc2Cl)c1 (stereo not shown) [Compound 196, methyl 2-(2-(benzo[d]oxazol-2-ylamino)-4-(2-chlorophenyl)-6-methyl-1,4-dihydropyrimidine-5-carboxamido)isonicotinate] | 5.56 | 5.56 | 5.26 | 5.26 |  |  |  |  |  | 27.7 1 × 10^−6 cm/sec | <1 | 18.44 |  |
